Laboratory results taken from patent US20140066431A1, “Benzoxazepines as Inhibitors of PI3K/mTOR and Methods of Their Use and Manufacture” (Exelixis, Inc., priority 2010, published 2014).
Where two headings read alike, the source gives them in different places.

Tests used:
[1] = tested on: PC3 (PTEN null) cellular model; test: pAKT (T308) ELISA assay, PC3; assay type: cell-based; details: Homo sapiens; IGF1 stimulation
Protocol: Cells were incubated at 37° C., 5% CO2 for 48 h (except MDA-MB-453 cells which were cultured in the absence of CO2). Compounds were serially diluted in DMSO and subsequently diluted in serum-free DMEM. Test compounds were added to cells in serum-free DMEM at a final concentration of 0.3% DMSO and incubated for 3 h. Cells were lysed with 130 μL of ice-cold RIPA lysis buffer (50 mM Tris-HCl, pH 7.5; 0.5% sodium deoxycholic acid; 1% Triton X-100; 0.1% SDS; 150 mM NaCl) with protease and phosphatase inhibitors (1 mM EDTA, 1 mM NaF, 20 mM β-glycerophosphate, 1 mM Na-orthovanadate, Complete-Mini EDTA-free, Roche, 11836170001, and Phosphatase Inhibitor Cocktail I, Sigma, P2850), directly in 96-well plates. Cells were lysed on ice for 60-120 min at 4° C. The supernatants were added directly to capture ELISA plates previously pre-coated with rabbit anti-AKT capture antibody. ELISA assays for pAKT(T308) and total AKT were performed with the pAKT(T308) ELISA kit (Cell Signaling Technology, 7144) and AKT1 ELISA kit (Cell Signaling Technology, 7142). For the pAKT(T308) ELISA, 85 μL of cell lysate was added to each well. For the total AKT1 ELISA, 15 μL of cell lysate and 85 μL of Starting Block buffer (Pierce, 37543) were added to each well.

[2] = tested on: MCF-7 cells (PI3Kα-E545K mutant); test: pAKT (T308) ELISA assay, MCF-7; assay type: cell-based; details: Homo sapiens, MCF7
Protocol: MCF-7 cells (ATCC) cells were seeded at 24000 cells per well in 96-well plates (Corning, 3904) in DMEM (Cellgro) containing 10% FBS (Cellgro), 1% NEAA (Cellgro) and 1% penicillin-streptomycin (Cellgro). Cells were incubated at 37° C., 5% CO2 for 48 h, and the growth medium was replaced with serum-free DMEM or in medium containing 0.4% BSA. Serial dilutions of the test compound in 0.3% DMSO (vehicle) were added to the cells and incubated for 3 h. At the end of the incubation period, cells were stimulated for 10 minutes by the addition of L-IGF (Sigma, I-1271) at a final concentration of 100 ng/ml. Afterwards, media was discarded from cell plates and 110 μl/well of cold lysis buffer (see table below) were added. Cell plates were incubated on ice and then put on shaker in 4° C. cold room for 1 h. Two capture plates (Thermo Scientific, Reacti-bind plate, 15042) were prepared for each cell plate by pre-coating with capture Akt antibody from the two sandwich ELISA antibody pairs used (Cell Signaling Technology 7142 and 7144). The Akt capture antibodies were diluted 1:100 in PBS and […] of diluted capture antibody was added per well. […] After 1 minute incubation, chemiluminescence was read on a Wallac Victor2 1420 multilabel counter. IC50 values were determined based on the ratio of pAkt(T308) to total Akt1 signal for compound treated wells, normalized to the DMSO-treated control wells. […]

IC50 [1]: 11.2 µM
IC50 ([2]; IGF1 stimulation, Table 5, read-out: pAKT (T308) IC50 MCF-7 PI3Kα E545K IGF1): 1.76 µM
IC50 ([2]; PI3KαE545K, Table 6, read-out: Cellular pAKT (T308) IC50 MCF-7): > 30 µM
Structure (SMILES): Cc1cc(C(C)Nc2ccccc2)c2nc(N3CCOCC3)cc(=O)n2c1 (stereo not drawn) [TGX-221, 7-methyl-2-(4-morpholinyl)-9-[1-(phenylamino)ethyl]-4H-pyrido[1,2-a]pyrimidin-4-one]
